These results are taken from patent US20130224296A1, “Drug Formulations Using Water Soluble Antioxidants” (Bristol-Myers Squibb Company, priority 2010, published 2013).

Molecules are shown by their SMILES. In brackets after ≈: the same amount, converted by molar mass.

Series [1] is described as follows: Level of formaldehyde and formic acid in antioxidant containing Opadry films (GC). Type of series: physicochemical. The following applies: Opadry II white film, sealed vials 60° C. for 5 days; 0.2% w/v BHT or 2% w/v ascorbic acid or propyl gallate in suspension. As to the method:
Five hundred μL of the coating suspension was dispensed in 5 mL scintillation vials. Open vials were kept overnight at 40° C. to form a film. The vials were rubber stoppered and sealed. The sealed vials were kept at 60° C. for 5 days and analyzed for formaldehyde and formic acid levels by a GC method. […] These concentrations are on the higher end of the recommended use concentrations for each antioxidant and were used to test their maximum efficacy.

The next series is described as follows: physchem. The conditions noted are these: water.

Consider `O=C1O[C@H]([C@@H](O)CO)C(O)=C1O` [Ascorbic acid], for which, in series [1], the Level of formaldehyde result is recorded as “Not detected” and the “Level of formic acid” value was determined as 184 ppm.

As usually defined, the solubility is the concentration that dissolves in the medium under given conditions. Read a low solubility as a poorly soluble substance. Take `Cc1cc(C(C)(C)C)c(O)c(C(C)(C)C)c1` [Butylated hydroxy toluene (BHT), Butylated hydroxy toluene]: in series [1], the Level of formaldehyde came to 95 ppm and the “Level of formic acid” value is given as 1159 ppm. For the same compound, the solubility in the series “physchem” fell in the range of 0.6 to 1.1 µg/mL (≈ 0.00272 to 0.00499 mM).

Turning to `CCCOC(=O)c1cc(O)c(O)c(O)c1` [Propyl gallate], in series [1], the Level of formaldehyde entry is given as “Not detected” and the “Level of formic acid” value is 60 ppm. The same compound registered a solubility in the series “physchem” of 3330 µg/mL (≈ 15.7 mM).
